pIC50: −log10 of the molar value.
Test system: 233499-124-R-J3-PDC complex spheroid growth
Test: Anticancer human tumor 233499-124-R-J3-PDC patient-derived colon adenocarcinoma cell line growth inhibition [AhR]
Conditions: for pIC50: curve of first compound; for viability, T/C: stronger effect = lower value
Summary of the method: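 Spheroids combined tumor cells with HUVEC endothelial cells and human MSCs as stroma. AhR antagonists were paired with standard or investigational drugs, each dosed in half-log steps down from near clinical Cmax, or from 10 microM where Cmax was unknown.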

[1] = second compound 0.1 µM, first compound 0.00316 µM
[2] = second compound 0.1 µM, first compound 0.01 µM
[3] = second compound 0.1 µM, first compound 0.0316 µM
[4] = second compound 0.1 µM, first compound 0.1 µM
[5] = second compound 0.316 µM, first compound 0.00316 µM
[6] = second compound 0.316 µM, first compound 0.01 µM
[7] = second compound 0.316 µM, first compound 0.0316 µM
[8] = second compound 0.316 µM, first compound 0.1 µM
[9] = second compound 1 µM, first compound 0.00316 µM
[10] = second compound 1 µM, first compound 0.01 µM
[11] = second compound 1 µM, first compound 0.0316 µM
[12] = second compound 1 µM, first compound 0.1 µM
[13] = second compound 3.16 µM, first compound 0.00316 µM
[14] = second compound 3.16 µM, first compound 0.01 µM
[15] = second compound 3.16 µM, first compound 0.0316 µM
[16] = second compound 3.16 µM, first compound 0.1 µM
[17] = second compound 10 µM, first compound 0.00316 µM
[18] = second compound 10 µM, first compound 0.01 µM
[19] = second compound 10 µM, first compound 0.0316 µM
[20] = second compound 10 µM, first compound 0.1 µM
[21] = second compound 0.1 µM, first compound 0.316 µM
[22] = second compound 0.1 µM, first compound 1 µM
[23] = second compound 0.1 µM, first compound 3.16 µM
[24] = second compound 0.1 µM, first compound 10 µM
[25] = second compound 0.316 µM, first compound 0.316 µM
[26] = second compound 0.316 µM, first compound 1 µM
[27] = second compound 0.316 µM, first compound 3.16 µM
[28] = second compound 0.316 µM, first compound 10 µM
[29] = second compound 1 µM, first compound 0.316 µM
[30] = second compound 1 µM, first compound 1 µM
[31] = second compound 1 µM, first compound 3.16 µM
[32] = second compound 1 µM, first compound 10 µM
[33] = second compound 3.16 µM, first compound 0.316 µM
[34] = second compound 3.16 µM, first compound 1 µM
[35] = second compound 3.16 µM, first compound 3.16 µM
[36] = second compound 3.16 µM, first compound 10 µM
[37] = second compound 10 µM, first compound 0.316 µM
[38] = second compound 10 µM, first compound 1 µM
[39] = second compound 10 µM, first compound 3.16 µM
[40] = second compound 10 µM, first compound 10 µM
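Also: spheroids exposed to agents for seven days before reading.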

CC[C@@]1(O)C(=O)OCc2c1cc1n(c2=O)Cc2cc3c(CN(C)C)c(O)ccc3nc2-1 + Cc1cncc(-c2nc(NCCc3c[nH]c4ccccc34)c3ncn(C(C)C)c3n2)c1
pIC50 (second compound 0.1 µM): < 7.00
pIC50 (second compound 0.316 µM): < 7.00
pIC50 (second compound 1 µM): < 7.00
pIC50 (second compound 3.16 µM): < 7.00
pIC50 (second compound 10 µM): > 9.50
viability, T/C (second compound 0.1 µM, first compound 0.000316 µM): 101%
viability, T/C (second compound 0.1 µM, first compound 0.001 µM): 94.2%
viability, T/C [1]: 92.1%
viability, T/C [2]: 94.6%
viability, T/C [3]: 97.6%
viability, T/C [4]: 92.6%
viability, T/C (second compound 0.316 µM, first compound 0.000316 µM): 92.1%
viability, T/C (second compound 0.316 µM, first compound 0.001 µM): 82.3%
viability, T/C [5]: 84.4%
viability, T/C [6]: 78.5%
viability, T/C [7]: 101%
viability, T/C [8]: 69.6%
viability, T/C (second compound 1 µM, first compound 0.000316 µM): 84.1%
viability, T/C (second compound 1 µM, first compound 0.001 µM): 76%
viability, T/C [9]: 77.8%
viability, T/C [10]: 70.3%
viability, T/C [11]: 85.2%
viability, T/C [12]: 68%
viability, T/C (second compound 3.16 µM, first compound 0.000316 µM): 87.8%
viability, T/C (second compound 3.16 µM, first compound 0.001 µM): 71.5%
viability, T/C [13]: 91%
viability, T/C [14]: 88.6%
viability, T/C [15]: 83.3%
viability, T/C [16]: 63.2%
viability, T/C (second compound 10 µM, first compound 0.000316 µM): 8.54%
viability, T/C (second compound 10 µM, first compound 0.001 µM): 8.37%
viability, T/C [17]: 34.9%
viability, T/C [18]: 24%
viability, T/C [19]: 12.9%
viability, T/C [20]: 16.9%

CCc1c2c(nc3ccc(O)cc13)-c1cc3c(c(=O)n1C2)COC(=O)[C@]3(O)CC + Cc1cncc(-c2nc(NCCc3c[nH]c4ccccc34)c3ncn(C(C)C)c3n2)c1
pIC50 (second compound 0.1 µM): < 6.52
pIC50 (second compound 0.316 µM): < 6.52
pIC50 (second compound 1 µM): < 6.52
pIC50 (second compound 3.16 µM): < 6.52
pIC50 (second compound 10 µM): > 9.02
viability, T/C (second compound 0.1 µM, first compound 0.000949 µM): 97%
viability, T/C (second compound 0.1 µM, first compound 0.003 µM): 99.5%
viability, T/C (second compound 0.1 µM, first compound 0.00949 µM): 77.6%
viability, T/C (second compound 0.1 µM, first compound 0.03 µM): 77.5%
viability, T/C (second compound 0.1 µM, first compound 0.0949 µM): 71.1%
viability, T/C (second compound 0.1 µM, first compound 0.3 µM): 91.8%
viability, T/C (second compound 0.316 µM, first compound 0.000949 µM): 101%
viability, T/C (second compound 0.316 µM, first compound 0.003 µM): 89.9%
viability, T/C (second compound 0.316 µM, first compound 0.00949 µM): 71.9%
viability, T/C (second compound 0.316 µM, first compound 0.03 µM): 67.2%
viability, T/C (second compound 0.316 µM, first compound 0.0949 µM): 66.4%
viability, T/C (second compound 0.316 µM, first compound 0.3 µM): 67.6%
viability, T/C (second compound 1 µM, first compound 0.000949 µM): 86.4%
viability, T/C (second compound 1 µM, first compound 0.003 µM): 89.1%
viability, T/C (second compound 1 µM, first compound 0.00949 µM): 70%
viability, T/C (second compound 1 µM, first compound 0.03 µM): 81%
viability, T/C (second compound 1 µM, first compound 0.0949 µM): 94.3%
viability, T/C (second compound 1 µM, first compound 0.3 µM): 64.3%
viability, T/C (second compound 3.16 µM, first compound 0.000949 µM): 90%
viability, T/C (second compound 3.16 µM, first compound 0.003 µM): 96.2%
viability, T/C (second compound 3.16 µM, first compound 0.00949 µM): 72.3%
viability, T/C (second compound 3.16 µM, first compound 0.03 µM): 86.1%
viability, T/C (second compound 3.16 µM, first compound 0.0949 µM): 70%
viability, T/C (second compound 3.16 µM, first compound 0.3 µM): 65.3%
viability, T/C (second compound 10 µM, first compound 0.000949 µM): 10.4%
viability, T/C (second compound 10 µM, first compound 0.003 µM): 13.7%
viability, T/C (second compound 10 µM, first compound 0.00949 µM): 21.5%
viability, T/C (second compound 10 µM, first compound 0.03 µM): 17%
viability, T/C (second compound 10 µM, first compound 0.0949 µM): 9.13%
viability, T/C (second compound 10 µM, first compound 0.3 µM): 7.22%

COc1cc(C2c3cc4c(cc3C(OC3OC5COC(C)OC5C(O)C3O)C3COC(=O)C23)OCO4)cc(OC)c1O (stereo not given) + Cc1cncc(-c2nc(NCCc3c[nH]c4ccccc34)c3ncn(C(C)C)c3n2)c1
pIC50 (second compound 0.1 µM): < 5.00
pIC50 (second compound 0.316 µM): < 5.00
pIC50 (second compound 1 µM): < 5.00
pIC50 (second compound 3.16 µM): < 5.00
pIC50 (second compound 10 µM): > 7.50
viability, T/C [3]: 92.6%
viability, T/C [4]: 101%
viability, T/C [21]: 109%
viability, T/C [22]: 95.4%
viability, T/C [23]: 98.6%
viability, T/C [24]: 92.9%
viability, T/C [7]: 91.7%
viability, T/C [8]: 89.8%
viability, T/C [25]: 86%
viability, T/C [26]: 81.6%
viability, T/C [27]: 83.9%
viability, T/C [28]: 88.5%
viability, T/C [11]: 77.5%
viability, T/C [12]: 84.4%
viability, T/C [29]: 77.3%
viability, T/C [30]: 88%
viability, T/C [31]: 79.8%
viability, T/C [32]: 69.9%
viability, T/C [15]: 78.9%
viability, T/C [16]: 79.5%
viability, T/C [33]: 77.4%
viability, T/C [34]: 73%
viability, T/C [35]: 74.1%
viability, T/C [36]: 55.9%
viability, T/C [19]: 9.81%
viability, T/C [20]: 11.9%
viability, T/C [37]: 30.9%
viability, T/C [38]: 30.1%
viability, T/C [39]: 22.2%
viability, T/C [40]: 9.08%

Nc1ccn(C2OC(CO)C(O)C2(F)F)c(=O)n1 (stereo not given) + Cc1cncc(-c2nc(NCCc3c[nH]c4ccccc34)c3ncn(C(C)C)c3n2)c1
pIC50 (second compound 0.1 µM): 5.75
pIC50 (second compound 0.316 µM): 6.11
pIC50 (second compound 1 µM): < 5.00
pIC50 (second compound 3.16 µM): 5.53
pIC50 (second compound 10 µM): < 5.00
viability, T/C [3]: 95.4%
viability, T/C [4]: 72%
viability, T/C [21]: 71.8%
viability, T/C [22]: 50.5%
viability, T/C [23]: 41.4%
viability, T/C [24]: 47.2%
viability, T/C [7]: 76.5%
viability, T/C [8]: 82.7%
viability, T/C [25]: 68%
viability, T/C [26]: 45.4%
viability, T/C [27]: 40.1%
viability, T/C [28]: 45.9%
viability, T/C [11]: 84.8%
viability, T/C [12]: 81.7%
viability, T/C [29]: 64%
viability, T/C [30]: 57.6%
viability, T/C [31]: 43.9%
viability, T/C [32]: 61.9%
viability, T/C [15]: 74.5%
viability, T/C [16]: 75.2%
viability, T/C [33]: 69.2%
viability, T/C [34]: 60.1%
viability, T/C [35]: 38.6%
viability, T/C [36]: 60.2%
viability, T/C [19]: 52.6%
viability, T/C [20]: 44.9%
viability, T/C [37]: 56%
viability, T/C [38]: 47.3%
viability, T/C [39]: 53%
viability, T/C [40]: 51.9%

Nc1ncn(C2CC(O)C(CO)O2)c(=O)n1 (stereo not given) + Cc1cncc(-c2nc(NCCc3c[nH]c4ccccc34)c3ncn(C(C)C)c3n2)c1
pIC50 (second compound 0.1 µM): < 6.00
pIC50 (second compound 0.316 µM): < 6.00
pIC50 (second compound 1 µM): < 6.00
pIC50 (second compound 3.16 µM): < 6.00
pIC50 (second compound 10 µM): > 8.50
viability, T/C [1]: 97.4%
viability, T/C [2]: 85%
viability, T/C [3]: 91.3%
viability, T/C [4]: 88%
viability, T/C [21]: 87.8%
viability, T/C [22]: 81.2%
viability, T/C [5]: 88.8%
viability, T/C [6]: 89.8%
viability, T/C [7]: 84.6%
viability, T/C [8]: 84%
viability, T/C [25]: 87.4%
viability, T/C [26]: 96.9%
viability, T/C [9]: 82.9%
viability, T/C [10]: 83.9%
viability, T/C [11]: 86.8%
viability, T/C [12]: 81%
viability, T/C [29]: 82.9%
viability, T/C [30]: 93.4%
viability, T/C [13]: 82.7%
viability, T/C [14]: 76.2%
viability, T/C [15]: 82.4%
viability, T/C [16]: 81%
viability, T/C [33]: 76.5%
viability, T/C [34]: 88.6%
viability, T/C [17]: 16.3%
viability, T/C [18]: 26.8%
viability, T/C [19]: 36.8%
viability, T/C [20]: 44.8%
viability, T/C [37]: 21.5%
viability, T/C [38]: 26.4%

Source: PubChem BioAssay AID1918993 (Molecular Pharmacology Branch, DTP, NCI, 2023)
